In US8163684B2, “Antimicrobials having polyquaternary ammoniums and alcohol-bearing amidoamines and methods for their use” (Abbott Medical Optics Inc., priority 2008, dated 2012):

Experiments:
S. marcescens [1] = test: log drop at contact time of 6 hours in lens case with PureVision lens, S. marcescens; type: cell-based; conditions: Table 2 solution
Protocol: To test the biocidal efficacy of other solutions comprising the synergistic combination of a polyquaternary ammonium compound and an amidoamine having an alcohol group, three (3) solutions were prepared by blending together the components provided in Table 2. […] When utilized, the amidoamine was RAPD and the polyquaternary ammonium compound was polyquaternium-1. Table 2 below provides the ingredients of the contact lens care solutions tested as well as the activity of the solutions against S. marcescens after six hours.

S. marcescens [2] = test: log drop at contact time of 6 hours in test tube without lenses, S. marcescens; type: cell-based
Protocol: To test the biocidal efficacy of other solutions comprising the synergistic combination of a polyquaternary ammonium compound and an amidoamine having an alcohol group, three (3) solutions were prepared by blending together the components provided in Table 2. Approximately three (3) mL was placed into a test tube with S. marcescens. When utilized, the amidoamine was RAPD and the polyquaternary ammonium compound was polyquaternium-1. Table 2 below provides the ingredients of the contact lens care solutions tested as well as the activity of the solutions against S. marcescens after six hours. Further testing was performed to test the biocidal efficacy of other solutions comprising the synergistic combination of a polyquaternary ammonium compound and an amidoamine having an alcohol group. Approximately three (3) mL was placed into a test tube with S. marcescens. When utilized, the amidoamine was RAPD and the polyquaternary ammonium compound was polyquaternium-1. Table 3 below provides the ingredients of the contact lens care solutions tested as well as the activity of the solutions against S. marcescens after six hours.

Fusarium = conditions: stated as known; cited from earlier work
[3] = tested on: trophzoite and cyst-type Acanthamoeba; conditions: stated as known; cited from earlier work
Acanthamoeba polyphaga = test: log drop in 6 hours in test tube, Acanthamoeba polyphaga; type: cell-based
Protocol: To test the biocidal efficacy of a solution comprising the synergistic combination of a polyquaternary ammonium compound and an amidoamine having an alcohol group, four (4) solutions were prepared by blending together the components provided in Table 4. Approximately three (3) mL of three of the solutions was placed into a test tube with A. polyphaga. When utilized, the amidoamine was RAPD and the polyquaternary ammonium compound was polyquaternium-1. Table 4 below provides the ingredients of the contact lens care solutions tested as well as the activity of the solutions against Acanthamoeba polyphaga after six hours. To test the biocidal efficacy of other solutions comprising the synergistic combination of a polyquaternary ammonium compound and an amidoamine having an alcohol group, three (3) solutions were prepared by blending together the components provided in Table 5. Approximately three (3) mL of two of the solutions was placed into a test tube with A. polyphaga. When utilized, the amidoamine was RAPD and the polyquaternary ammonium compound was polyquaternium-1. Table 5 below provides the ingredients of the contact lens care solutions tested as well as the activity of the solutions against A. polyphaga after six hours.

C. albicans = test: log drop in 6 hours in lens case with PureVision lens, C. albicans; type: cell-based, Candida albicans
Excerpt: (§1) Approximately three (3) mL of each solution was introduced into a lens case containing a PureVision® soft contact lens. Each contact lens was maintained in this solution at room temperature for about six (6) hours. The amidoamine used was ricinoleamidopropyl dimethylamine (RAPD), an amidoamine with an alcohol group. Table 1 below provides the ingredients of the contact lens care solutions tested as well as the activity of the various solutions against Candida and Fusarium after six hours.
To test the biocidal efficacy of a solution comprising the synergistic combination of a polyquaternary ammonium compound and an amidoamine having an alcohol group, four (4) solutions were prepared by blending together the components provided in Table 4. Approximately three (3) mL of three of the solutions was placed into a test tube with A. polyphaga. When utilized, the amidoamine was RAPD and the polyquaternary ammonium compound was polyquaternium-1. Table 4 below provides the ingredients of the contact lens care solutions tested as well as the activity of the solutions against Acanthamoeba polyphaga after six hours.

F. solani = test: log drop in 6 hours in lens case with PureVision lens, F. solani; type: cell-based; conditions: for log drop in 6 hours in lens case with PureVision lens, F. solani: sole antimicrobial, Table 1 solution, room temperature
Excerpt: as §1

[4] = RAPD 0.0005 % w/w, no CPC, no PQ-1, Table 4 solution
[5] = RAPD as the sole antimicrobial agent, Table 1 solutions

Molecule: poly[(dimethyliminio)-2-butene-1,4-diylchloride (1:1)], a-[4-[tris(2-hydroxyethyl)ammonio]-2-buten-1-yl]-w-[tris(2-hydroxyethyl)ammonio]-chloride [PQ-1]
- log drop at contact time of 6 hours in lens case with PureVision lens, S. marcescens (S. marcescens [1]; PQ-1 0.001 % w/w, no RAPD): 1.07 log
- log drop at contact time of 6 hours in test tube without lenses, S. marcescens (S. marcescens [2]; PQ-1 0.001 % w/w, no RAPD, citrate/borate solution of Tables 2 and 3): 1.53 log

Molecule: CCCCC(CC)CNC(=N)NC(=N)NCCCCCCNC(=N)NC(=N)NCC(CC)CCCC (stereo not shown) [alexidine]
- biocidal activity against Fusarium (in words) (Fusarium): not very biocidal
- biocidal activity against trophzoite and cyst-type Acanthamoeba (in words) [3]: very biocidal

Molecule: CCCCCC[C@@H](O)C/C=C\CCCCCCCC(=O)NCCCN(C)C [RAPD, ricinoleamidopropyl dimethylamine]
- log drop at contact time of 6 hours in lens case with PureVision lens, S. marcescens (S. marcescens [1]; RAPD 0.002 % w/w, no PQ-1): 0.91 log
- log drop in 6 hours in test tube, Acanthamoeba polyphaga (Acanthamoeba polyphaga; [4]): 0.18 log
- log drop in 6 hours in test tube, A. polyphaga (Acanthamoeba polyphaga; RAPD 0.002 % w/w, no PQ-1, no CPC, Table 5 solution): 1.90 log
- log drop in 6 hours in lens case with PureVision lens, C. albicans (C. albicans; RAPD 0.0002 % w/w, sole antimicrobial, Table 1 solution, room temperature): 0.26 log
- log drop in 6 hours in lens case with PureVision lens, C. albicans (C. albicans; [4]): <0.28 log
- log drop in 6 hours in lens case with PureVision lens, C. albicans (C. albicans; RAPD 0.0005 % w/w, sole antimicrobial, Table 1 solution, room temperature): 0.33 log
- log drop in 6 hours in lens case with PureVision lens, C. albicans (C. albicans; RAPD 0.001 % w/w, sole antimicrobial, Table 1 solution, room temperature): 0.21 log
- biocidal activity against Candida (in words) (C. albicans; [5]): very low biocidal activity
- log drop in 6 hours in lens case with PureVision lens, F. solani (F. solani; RAPD 0.0002 % w/w): 0.48 log
- log drop in 6 hours in lens case with PureVision lens, F. solani (F. solani; RAPD 0.0005 % w/w): 0.37 log
- log drop in 6 hours in lens case with PureVision lens, F. solani (F. solani; RAPD 0.001 % w/w): 0.35 log
- biocidal activity against Fusarium (in words) (F. solani; [5]): very low biocidal activity
- log drop at contact time of 6 hours in test tube without lenses, S. marcescens (S. marcescens [2]; RAPD 0.0005 % w/w, no PQ-1, Table 3 solution): 0.44 log
- log drop at contact time of 6 hours in test tube without lenses, S. marcescens (S. marcescens [2]; RAPD 0.001 % w/w, no PQ-1, Table 3 solution): 1.51 log
- log drop at contact time of 6 hours in test tube without lenses, S. marcescens (S. marcescens [2]; RAPD 0.002 % w/w, no PQ-1, Table 2 solution): 1.77 log
